These results are taken from ChEMBL document CHEMBL1125020 (J Med Chem, 1990).

Test [1] can be described thus: Inhibition of Adenylate Cyclase in Rat adipocytes. In kind it is cell-based.
In test [2] the target is T1, Adenosine receptor A1 (Rattus norvegicus, UniProt P25099).
T1 sequence (P25099 whole entry): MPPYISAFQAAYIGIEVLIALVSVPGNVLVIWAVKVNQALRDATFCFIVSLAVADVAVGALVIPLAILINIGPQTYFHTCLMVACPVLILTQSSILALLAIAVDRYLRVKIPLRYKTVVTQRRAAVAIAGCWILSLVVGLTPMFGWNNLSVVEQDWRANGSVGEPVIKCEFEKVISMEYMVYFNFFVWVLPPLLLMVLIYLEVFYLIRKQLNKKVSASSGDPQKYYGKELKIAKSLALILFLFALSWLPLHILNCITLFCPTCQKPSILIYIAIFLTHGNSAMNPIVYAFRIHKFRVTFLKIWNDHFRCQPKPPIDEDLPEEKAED

In test [3] the target is Adenosine A2 receptor (Rattus norvegicus, UniProt P29276+P30543).

As a reminder, the IC50 is the concentration that inhibits the measured activity by half. Broadly, the Ki is the dissociation constant of the complex between target and ligand, obtained from inhibition or displacement. The low end stands for higher affinity, the high end for lower affinity.

For `Cn1c(=O)c2nc(C3CC3)[nH]c2n(C)c1=O`, half-maximal inhibition in test [1] (IC50) was put at 42 nM.

As for `Cn1c(=O)c2nc(Cc3ccccc3)[nH]c2n(C)c1=O`, the midpoint of inhibition in test [1], the IC50, lay at 890 nM.

Molecule `OC[C@H]1O[C@@H](n2cnc3c(NC4CC4)ncnc32)[C@H](O)[C@@H]1O` registered a Ki in test [2] of 2.1 nM.

For the molecule `CCCn1c(=O)c2nc([C@H](C)Cc3ccccc3)[nH]c2n(CCC)c1=O`, the inhibitory constant (Ki) in test [3] was 157 nM.

Regarding `Cn1c(=O)c2nc(C3CCCCC3)[nH]c2n(C)c1=O`, the half-maximal inhibitory concentration (IC50) in test [1] is 2.5 nM. The inhibition constant Ki in test [3] is 4.7 nM.

Regarding `CCCn1c(=O)c2nc(C(C)Cc3ccccc3)[nH]c2n(CCC)c1=O` (stereo not given), the inhibition constant (Ki) in test [3] is on record as 644 nM.

Regarding `CCCn1c(=O)c2nc([C@@H](C)Cc3ccccc3)[nH]c2n(CCC)c1=O`, the inhibitory constant (Ki) in test [3] is reported as 848 nM.

As for `OC[C@H]1O[C@@H](n2cnc3c(NC4CCCCC4)ncnc32)[C@H](O)[C@@H]1O`, in test [1], the 50% inhibitory concentration (IC50) worked out at 27 nM.

In turn, `Cn1c(=O)c2nc(C3CCCC3)[nH]c2n(C)c1=O` [8-CYCLOPENTYLTHEOPHYLLINE] returned an IC50 in test [1] of 0.47 nM. Moreover, affinity in test [2] was put at a Ki of 0.46 nM.

`Cn1c(=O)c2nc(-c3ccccc3)[nH]c2n(C)c1=O` [8-PHENYL THEOPHYLLINE]: inhibition in test [1] was half-maximal at 37 nM (IC50). This molecule also registered a Ki in test [3] of 20.9 nM.

`OC[C@H]1O[C@@H](n2cnc3c(NCc4ccccc4)ncnc32)[C@H](O)[C@@H]1O` [N6-BENZYLADENOSINE] registered an IC50 in test [1] of 2200 nM. In addition, the Ki in test [3] turned out to be 350 nM.

Molecule `OC[C@H]1O[C@@H](n2cnc3c(NC4CCCC4)ncnc32)[C@H](O)[C@@H]1O` [N6-CYCLOPENTYLADENOSINE] displayed a 50% inhibitory concentration (IC50) in test [1] of 19.2 nM. Further, the Ki in test [3] was 1.1 nM.

Consider `OC[C@H]1O[C@@H](n2cnc3c(Nc4ccccc4)ncnc32)[C@H](O)[C@@H]1O` [N6-PHENYLADENOSINE], for which, in test [1], the half-inhibitory concentration (IC50) was 190 nM. In addition, in test [3], the inhibitory constant (Ki) worked out at 110 nM.

In test [1], `Cn1c(=O)c2nc[nH]c2n(C)c1=O` [THEOPHYLLINE] had an IC50 of 940 nM.
